Where two headings read alike, the source gives them in different places.
Tests used:
[1] = biological target: recombinant TDP1 (Homo sapiens, UniProt Q9NUW8); experiment: Gel-based assay measuring the inhibition of recombinant TDP1; format: biochemical; details: for IC50: Table 5, determined in duplicate
Protocol: A 5′-[^32P]-labeled single-stranded DNA oligonucleotide containing a 3′-phosphotyrosine (N14Y) was generated as described by Dexheimer et al. (J. Med. Chem. 2009, 52, 7122-7131). The DNA substrate was then incubated with 5 μM recombinant TDP1 in the absence or presence of inhibitor for 15 min at room temperature in a buffer containing 50 mM Tris HCl, pH 7.5, 80 mM KCl, 2 mM EDTA, 1 mM DTT, 40 μg/ml BSA and 0.01% Tween-20. Reactions were terminated by the addition of 1 volume of gel loading buffer [99.5% (v/v) formamide, 5 mM EDTA, 0.01% (w/v) xylene cyanol, and 0.01% (w/v) bromophenol blue]. Samples were subjected to a 16% denaturing PAGE and gels were exposed after drying to a PhosphorImager screen (GE Healthcare). Gel images were scanned using a Typhoon 8600 (GE Healthcare) and densitometric analyses were performed using the ImageQuant software (GE Healthcare).
The TDP1 inhibitory activities of the O-2-substituted indenoisoquinolines were measured by determining their abilities to inhibit the hydrolysis of the phosphodiester linkage between tyrosine and the 3′-end of a DNA oligonucleotide substrate and thus prevent the generation of an oligonucleotide with a free 3′-phosphate (N14P, Scheme 13). Therefore, the disappearance of the gel band for N14P indicates TDP1 inhibition.
Tyrosyl-DNA phosphodiesterase 1 (TDP1) is a DNA repair enzyme that repairs cytotoxic DNA damage induced by Top1 inhibitors.

[2] = system: colon HCT-116; experiment: COMPARE screening (NCI human cancer cell line screen), cytotoxicity GI50; format: cell-based; details: Homo sapiens, HCT-116, 48 h, read-out: Cytotoxicity (GI50) Colon HCT-116
Summary of the method: (§1)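 Compounds went into the NCI developmental therapeutics 60-cell-line screen at 100, 10, 1, 0.1 and 0.01 μM. After 48 h incubation, sulforhodamine B staining gave optical densities used to derive percentage growth.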

[3] = system: renal SN12C; experiment: as above; format: cell-based; details: Homo sapiens, SN12C, 48 h, read-out: Cytotoxicity (GI50) renal SN12C
Summary of the method: as §1

[4] = system: prostate DU-145; experiment: as above; format: cell-based; details: Homo sapiens, DU-145, 48 h, read-out: Cytotoxicity (GI50) prostate DU-145
Summary of the method: as §1

[5] = system: melanoma UACC-62; experiment: as above; format: cell-based; details: Homo sapiens, UACC-62, 48 h, read-out: Cytotoxicity (GI50) melanoma UACC-62
Summary of the method: as §1

[6] = system: ovarian OVCAR-3; experiment: as above; format: cell-based; details: Homo sapiens, OVCAR-3, 48 h, read-out: Cytotoxicity (GI50) Ovarian OVCAR-3
Summary of the method: as §1

[7] = system: lung HOP-62; experiment: as above; format: cell-based; details: Homo sapiens, HOP-62, 48 h, read-out: Cytotoxicity (GI50) lung HOP-62
Summary of the method: as §1

[8] = system: CNS SF-539; experiment: as above; format: cell-based; details: Homo sapiens, CNSSF-539, 48 h, read-out: Cytotoxicity (GI50) CNS SF-539
Summary of the method: as §1

[9] = biological target: T1, Human recombinant Top1 (Homo sapiens, UniProt P11387); experiment: Topoisomerase 1-mediated DNA cleavage reactions (B), 117-bp DNA oligonucleotide; format: biochemical; set-up: key to Top1 inhibitory activity (level): 0, no detectable activity; +, weak activity; ++, similar activity to compound 33; +++, greater activity than 33; ++++, equipotent to 32; Ambiguous scores (e.g., between two values) are designated with parentheses (e.g., ++(+) would be between ++ and +++); key to Top1 (compound-induced DNA cleavage due to Top1 inhibition): 0, no detectable activity; +, weak activity; ++, similar activity to compound 5; +++, greater activity than 34; ++++ , equipotent to 32; The (+) ranking indicates the activity lies between two given values; details: Table 5; for Top1 inhibitory activity (level): relative to compounds 32 and 33; for Top1 (compound-induced DNA cleavage due to Top1 inhibition): semiquantitative scale relative to 1 μM camptothecin (32) or MJ-III-65 (34)
T1 construct: made in house
T1 sequence (P11387 1-765): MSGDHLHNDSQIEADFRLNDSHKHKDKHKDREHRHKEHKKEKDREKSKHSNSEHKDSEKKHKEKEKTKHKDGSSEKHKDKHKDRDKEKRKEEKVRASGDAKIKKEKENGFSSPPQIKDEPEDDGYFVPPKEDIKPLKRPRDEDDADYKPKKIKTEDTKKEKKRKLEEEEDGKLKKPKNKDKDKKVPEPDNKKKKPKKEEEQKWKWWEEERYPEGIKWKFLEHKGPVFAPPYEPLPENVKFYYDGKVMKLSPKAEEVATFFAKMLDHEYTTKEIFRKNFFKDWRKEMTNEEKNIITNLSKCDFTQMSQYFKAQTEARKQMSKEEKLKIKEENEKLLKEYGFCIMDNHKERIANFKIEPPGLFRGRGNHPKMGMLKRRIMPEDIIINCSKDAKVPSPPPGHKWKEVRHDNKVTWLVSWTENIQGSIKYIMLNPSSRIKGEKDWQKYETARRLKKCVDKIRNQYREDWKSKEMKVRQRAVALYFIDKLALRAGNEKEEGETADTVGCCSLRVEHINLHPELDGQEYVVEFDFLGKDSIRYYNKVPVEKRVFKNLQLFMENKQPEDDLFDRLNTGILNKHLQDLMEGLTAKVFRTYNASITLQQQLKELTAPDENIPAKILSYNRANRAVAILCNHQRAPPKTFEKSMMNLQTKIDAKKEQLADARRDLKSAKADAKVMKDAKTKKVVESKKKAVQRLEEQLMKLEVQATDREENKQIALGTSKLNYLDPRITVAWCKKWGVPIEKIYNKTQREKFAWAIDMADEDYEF
Protocol: Human recombinant Top1 was purified from baculovirus as described in Bailly, C. Curr. Med. Chem. 2000, 7, 39-58. DNA cleavage reactions were prepared as previously reported with the exception of the DNA substrate in Saltz, et al. Oncologist 1997, 2, 402-409.
Approximately 2 nM radiolabeled DNA substrate was incubated with recombinant Top1 in 20 μL of reaction buffer [10 mM Tris-HCl (pH 7.5), 50 mM KCl, 5 mM MgCl2, 0.1 mM EDTA, and 15 μg/mL BSA] at 25° C. for 20 min in the presence of various concentrations of compounds. […] Aliquots of each reaction mixture were subjected to 20% denaturing PAGE. Gels were dried and visualized using a phosphoimager and ImageQuant software (Molecular Dynamics).
All of the new indenoisoquinoline derivatives with C-2 side chains were tested in Top1-mediated DNA cleavage assays. For this purpose, a ^32P 3′-end labeled 117-bp DNA fragment was incubated with Top1 and four 10-fold dilutions starting from 100 μM of a tested compound. The DNA fragments were separated on 20% PAGE denaturing gels. The Top1 inhibitory activities were assigned on the basis of the visual inspection of the number and intensities of the gel bands corresponding to Top1-mediated DNA cleavage fragments. […] Ambiguous scores (e.g., between two values) are designated with parentheses (e.g., ++(+) would be between ++ and +++).

[10] = system: all human cancer cell lines successfully tested; experiment: NCI screen mean graph midpoint (MGM) for growth inhibition; format: cell-based; details: Table 6; for GI50's against various cell lines (in words): NCI60 cell lines; for MGM (mean GI50 across cell lines): all human cancer cell lines successfully tested, range 10^−8 to 10^−4 molar, with standard error
Summary of the method: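 NCI60 panel cells exposed to compound at 100, 10, 1, 0.1 and 0.01 μM for 48 h, then sulforhodamine B staining. Percentage growth versus control plotted against log concentration; MGM is the midpoint across all lines tested.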

[11] = system: breast MCF-7; experiment: NCI60 antiproliferative activity, cytotoxicity GI50; format: cell-based, human; details: Homo sapiens, MCF7, 48 h, read-out: Cytotoxicity (GI50) breast MCF-7
Protocol: Selected compounds were tested for antiproliferative activity in the National Cancer Institute's developmental therapeutics assay 60 cell line screen (NCI60). The cells were incubated with the tested compounds at 100, 10, 1, 0.1, and 0.01 μM concentrations for 48 h before treatment with sulforhodamine B dye. Optical densities were recorded, and their ratios relative to that of the control were plotted as percentage growth against the log 10 of the tested compound concentrations.

[12] = read-out: TDP1 (IC50, semiquantitative scale)
[13] = read-out: TDP1 inhibitory activity (potency score)

recombinant TDP1, sequence (Q9NUW8 whole entry): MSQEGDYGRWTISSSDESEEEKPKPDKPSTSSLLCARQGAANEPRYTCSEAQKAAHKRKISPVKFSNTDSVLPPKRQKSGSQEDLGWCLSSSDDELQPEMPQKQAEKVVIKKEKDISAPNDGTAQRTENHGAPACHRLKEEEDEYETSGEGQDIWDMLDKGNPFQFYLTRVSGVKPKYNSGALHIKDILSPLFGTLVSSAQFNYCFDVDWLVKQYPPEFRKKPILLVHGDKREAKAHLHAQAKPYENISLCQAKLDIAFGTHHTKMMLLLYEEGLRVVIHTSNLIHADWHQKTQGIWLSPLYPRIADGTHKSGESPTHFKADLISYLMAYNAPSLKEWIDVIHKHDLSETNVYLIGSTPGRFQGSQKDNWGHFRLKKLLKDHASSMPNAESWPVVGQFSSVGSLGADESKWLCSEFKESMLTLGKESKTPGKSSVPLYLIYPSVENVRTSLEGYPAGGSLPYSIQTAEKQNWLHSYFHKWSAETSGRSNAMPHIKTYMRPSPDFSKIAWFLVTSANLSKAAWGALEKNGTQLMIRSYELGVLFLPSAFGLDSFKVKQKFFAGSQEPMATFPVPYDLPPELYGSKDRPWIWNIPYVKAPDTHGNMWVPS

Row | Structure (SMILES) | TDP1 inhibitory activity (in words) [1] | IC50 [1, 12] | GI50 [2] | GI50 [3] | GI50 [4] | GI50 [5] | GI50 [6] | GI50 [7] | GI50 [8] | Top1 inhibitory activity (level) [9] | Top1 (compound-induced DNA cleavage due to Top1 inhibition) [9] | GI50's against various cell lines (in words) [10] | MGM (mean GI50 across cell lines) [10] | melting point | GI50 [11] | IC50 [1, 13]
1 | C=CCOc1cc2c3c(n(CCCN4CCOCC4)c(=O)c2cc1OC)-c1cc2c(cc1C3=O)OCO2 [Compound 20, 2-(Allyloxy)-3-methoxy-6-(3-morpholinopropyl)-5H-[1,3]dioxolo[4′,5′:5,6]indeno [1,2-c]isoquinoline-5,12(6H)-dione] | no detectable TDP1 inhibitory activity | > 111 µM | 0.01 µM | < 0.01 µM | < 0.01 µM | < 0.01 µM | 0.3 µM | < 0.01 µM | 0.01 µM | + or ++ | + | submicromolar | 0.1 ± 0.035 µM | 199 to 200 °C (dec.) | < 0.01 µM | 
2 | COc1cc2c(=O)n(CCCN3CCOCC3)c3c(c2cc1OCCCN)C(=O)c1cc2c(cc1-3)OCO2 [Compound 22, 2-(3-Aminopropoxy)-3-methoxy-6-(3-morpholinopropyl)-5H-[1,3]dioxolo [4′,5′:5,6]indeno[1,2-c]isoquinoline-5,12(6H)-dione] |  | 37 to 111 µM | 0.2 µM | 0.3 µM | 0.3 µM | 0.3 µM | 0.4 µM | 0.3 µM | 0.2 µM |  |  | submicromolar | 0.5 ± 0.092 µM | > 350 °C | 0.2 µM | 
3 | COc1cc2c(=O)n(CCCN3CCOCC3)c3c(c2cc1OCCCN1CCOCC1)C(=O)c1cc2c(cc1-3)OCO2 [Compound 25, 3-Methoxy-2-(3-morpholinopropoxy)-6-(3-morpholinopropyl)-5H-[1,3]dioxolo [4′,5′:5,6]indeno[1,2-c]isoquinoline-5,12(6H)-dione] | no TDP1 inhibitory activity was observed | > 111 µM | 0.1 µM | 0.1 µM | 0.02 µM | 0.2 µM | 0.7 µM | 0.03 µM | 0.1 µM | +++ | +++ | submicromolar | 0.2 ± 0.028 µM |  | 0.02 µM | 
4 | COc1cc2c(=O)n(CCCN3CCOCC3)c3c(c2cc1OCCCN1CCCCC1)C(=O)c1cc2c(cc1-3)OCO2 [Compound 27, 3-Methoxy-6-(3-morpholinopropyl)-2-(3-(piperidin-1-yl)propoxy)-5H-[1,3]dioxolo [4′,5′:5,6]indeno[1,2-c]isoquinoline-5,12(6H)-dione] |  | 12 to 37 µM | 1.1 µM | 0.4 µM | 0.2 µM | 9.6 µM | 5.4 µM | 0.3 µM | 0.03 µM | +++ | +++ | low micromolar | 1.6 ± 0.23 µM |  | 0.04 µM | 12 to 37 µM
5 | COc1cc2c(=O)n(CCCN3CCOCC3)c3c(c2cc1OCCCN1CCCC1)C(=O)c1cc2c(cc1-3)OCO2 [Compound 28, 3-Methoxy-6-(3-morpholinopropyl)-2-(3-(pyrrolidin-1-yl)propoxy)-5H-[1,3]dioxolo[4′,5′:5,6]indeno[1,2-c]isoquinoline-5,12(6H)-dione] |  | 1 to 37 µM | 0.2 µM | 0.2 µM | 0.04 µM | 0.3 µM | 1.2 µM | 0.2 µM | 0.2 µM | ++ | ++ |  | 0.6 ± 0.37 µM |  | 0.1 µM | 1 to 37 µM
6 | COC(=O)COc1cc2c3c(n(CCCN4CCOCC4)c(=O)c2cc1OC)-c1cc2c(cc1C3=O)OCO2 [Compound 29, Methyl 2-((3-Methoxy-6-(3-morpholinopropyl)-5,12-dioxo-6,12-dihydro-5H-[1,3]dioxolo[4′,5′:5,6]indeno[1,2-c]isoquinolin-2-yl)oxy)acetate] |  | > 111 µM | 1.1 µM | 0.8 µM | 0.9 µM | 1 µM | 5.8 µM | 0.1 µM | 0.1 µM | + or ++ | ++ | low micromolar | 3.1 ± 1.2 µM |  | 0.4 µM | 

From US9796753B2, “N-substituted indenoisoquinolines and syntheses thereof” (Purdue Research Foundation, priority 2005, dated 2017)
